Measured values taken from patent US12599676B2, “Cytotoxic imidazo[1,2-A]pyridine compounds and their use in therapy” (MyricX Pharma Limited, priority 2022, dated 2026).

What was measured:
[1] = Caco-2 cell permeability assay; format: in vitro ADME; conditions: human, Caco-2, pH 7.4, basal to apical Papp, pH 7.4, 2.5 h
Procedure, shortened: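 Caco-2 monolayers grown 10 days were dosed at 2 μM (1% DMSO) on the donor side in HBSS/10 mM HEPES pH 7.4, for both AB and BA directions, then incubated 2.5 h at 37 °C without shaking. Donor and acceptor samples were quantified by LC-MS/MS to give Papp. Wells that failed a Lucifer Yellow integrity check (>1% passage) were excluded.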

[2] = test system: RKO (human colon carcinoma); assay: Cell cytotoxicity CellTiter-Glo, RKO; format: cell-based
Experimental: Cells were seeded in 96-well microplates and treated with compounds or cisplatin (as a positive control) at 9 increasing concentrations in technical triplicate. […] On day 1, 90 μL of various cell suspensions with the number of cells ranging from 5000-8000 cells/well were seeded into wells of a 96-well plate (Corning). The number of cells to be seeded was previously determined. • 2. All 96-wells plates with cells were placed in an incubator overnight at 37° C. with 5% CO2. • 3. On day 2, cells were observed under a microscope ensuring the cells treated with vehicle control were in good condition. • 4. A dilution series of the test compounds and cisplatin were prepared at 10× the final concentrations required. 10 μL/well of 10× compound solution was added to the corresponding plates. The final volume was 100 μL/well for all the plates. Final DMSO concentration was 0.1%. • 5. On day 5 (after 72 hours of incubation), 50 μL of CTG reagent was added to each well. • 6. Contents were mixed for 5 minutes on an orbital shaker to facilitate cell lysis. • 7. The plate was allowed to incubate at room temperature for 10 minutes to stabilize luminescent signals. […]

Cc1c(CCOc2cc(Cl)ccc2-c2ccc3ncc(CCN)n3c2)c(C(=O)N(C)C)nn1C [Comparator Compound 1, 4-(2-{2-[3-(2-aminoethyl)imidazo[1,2-a]pyridin-6-yl]-5-chlorophenoxy}ethyl)-N,N,1,5-tetramethyl-1H-pyrazole-3-carboxamide, reference compound]
Papp B→A at 2.5 h, 2 μM [1]: 9.1 ×10⁻⁶ cm/s | IC50 [2]: 96 nM
